In ChEMBL document CHEMBL3045263, “Novel 2-thiopyrimidine derivatives as CDK2 inhibitors: molecular modeling, synthesis, and anti-tumor activity evaluation” (Med Chem Res, 2013):

Test system: HeLa
Experiment: Antitumor activity against Homo sapiens (human) HeLa cells assessed as inhibition of cell proliferation after 48 hr by SRB assay
Format: functional, cell-based

Compound	IC50
COc1ccc(-c2nc(Nc3ccc(S(N)(=O)=O)cc3)nc(N3N=C(C)CC3=O)c2C#N)cc1OC	0.046 µM
COc1ccc(-c2nc(Nc3ccc(S(N)(=O)=O)cc3)n3c(=O)[nH]nc3c2C#N)cc1OC	0.047 µM
CCOC1=NN(c2nc(Nc3ccc(S(N)(=O)=O)cc3)nc(-c3ccc(OC)c(OC)c3)c2C#N)C(=O)C1	0.042 µM
COc1ccc(-c2nc(Nc3ccc(S(N)(=O)=O)cc3)n3c(C)nnc3c2C#N)cc1OC	0.048 µM

Other lines, results leading:

IC50	Compound
0.016 µM	COc1cccc2c1C(=O)c1c(O)c3c(c(O)c1C2=O)C[C@@](O)(C(=O)CO)C[C@@H]3O[C@H]1C[C@H](N)[C@H](O)[C@H](C)O1 [DOXORUBICIN]
0.041 µM	COc1ccc(-c2nc(Nc3ccc(S(N)(=O)=O)cc3)nc(-n3nc(C)cc3C)c2C#N)cc1OC
0.039 µM	COc1ccc(-c2nc(Nc3ccc(S(N)(=O)=O)cc3)n3nnnc3c2C#N)cc1OC
0.042 µM	COc1ccc(C2=C(C#N)C3=NCC(=O)N3C(Nc3ccc(S(N)(=O)=O)cc3)=N2)cc1OC
